Results from publication PMC12622528, “Discovery of a Baloxavir‐Inspired Endonuclease Inhibitor That Prevents Herpes Simplex Virus 1 Replication in Cell Culture and In Vivo” (Advanced Science, 2025).

Key:
[1] = system: BALB/c mice; details: oral, five consecutive days, LN‐7 25, 50, 75 mg kg−1, acyclovir 50 mg kg−1, 12 days
Procedure: BALB/c mice were purchased from Charles River Laboratories Spain and maintained at the Animal Facility of the CBM (Madrid, Spain). The toxicity of the test compound LN‐7 was investigated in BALB/c mice dosed as a solution at 25, 50, and 75 mg kg^−1. The compound was formulated in 3% DMSO + 10% solutol HS‐15 + 87% double‐distilled water (20 mg mL^−1). Animals had free access to food and water throughout each study. […] Compounds were orally administered for five consecutive days. Animals were monitored daily for clinical signs (piloerection, lethargy, eye closure), body weight loss, and survival. Oral administration and symptom monitoring was performed by researchers that were aware of the treatment condition (group allocation) for each animal. […] Animals with score 4 were defined as the humane endpoint on which the animal must be euthanized. On day 12, mice were sacrificed and whole blood was obtained by cardiac puncture. Several parameters were analyzed to monitor renal, hepatic, and immunological basic profiles. Body weight was also monitored to exclude weight loss or lack of weight gain that would be indicative of toxicity.

[2] = system: HSV‐1; test: HSV‐1 infection model in BALB/c mice; type: in vivo; details: for clinical symptoms of the infection / morbidity: oral LN‐7 75 mg kg−1 or acyclovir 50 mg kg−1; for survival: 8 days postinfection
[3] = Cell viability (MTT) in Vero cells; details: African green monkey
[4] = system: ACV‐resistant HSV‐1 strain F‐TKGF; test: Antiviral assay, ACV‐resistant HSV‐1 strain F‐TKGF in Vero cells; details: Human alphaherpesvirus 1, Vero, read-out: EC50 against ACV‐resistant strain F‐TKGF
[5] = biological target: HSV‐1 pUL15C (Human herpesvirus 1, UniProt P04295); test: HSV‐1 pUL15C nuclease inhibition enzymatic assay (32P‐labeled 33‐bp dsDNA substrate); type: biochemical; details: for inhibition at 50 µM: read-out: percentage inhibition of pUL15C nuclease activity at the highest concentration tested; for IC50: concentration required to inhibit by 50% the pUL15C nuclease activity, 37 °C, 1 mM MnCl2, 15 min
[6] = Pharmacokinetics studies in rats; type: in vivo; details: male, Sprague-Dawley, plasma, rat
Procedure: Six male Sprague‐Dawley rats (180–200 g) were randomly divided into two groups to receive […] of LN‐7 at 2 mg kg^−1 (iv administration) or 10 mg kg^−1 (po administration). LN‐7 was dissolved in DMSO, and then diluted at a concentration of 1 mg mL^−1 in 3% DMSO, 10% solutol HS‐15, and 87% double‐distilled water for dosing. Rats were purchased from Beijing Vital River Laboratory Animal Technology Co., Ltd. (Qualification No. SCXK(SH) 2021‐0011). Animals were subjected to 12 h alternating light and dark cycles, ad libitum access to drinking water and food, and fasting for 12 h prior to the initiation of treatments. For the oral dose at 10 mg kg^−1, blood samples were collected at 0.083, 0.25, 0.5, 1, 2, 4, 6, 8, and 24 h postadministration. For the intravenous dose (at 2 mg kg^−1), blood samples were collected at 0.083, 0.25, 0.5, 1, 2, 4, 6, 8, and 24 h postadministration. Twenty µL of blood were mixed with a 200 µL solution of methanol:acetonitrile (1:1), vortexed for 5 min, and centrifuged (4000 rpm, 4 °C, 10 min) to obtain plasma within 30 min of sampling. The supernatant was analyzed by liquid chromatography–tandem mass spectrometry. Chromatographic separation was performed using an ACQUITY UPLC HSS T3 column (2.1 × 50 mm, 1.8 µm). […] Gradient elution was carried out at a flow rate of 0.8 mL min^−1. […] Mass spectrometric detection was performed with an electrospray ionization source operating in positive ion mode. Quantification was achieved using multiple reaction monitoring with the following transitions: m/z 403.15.
Pharmacokinetic parameters such as AUC, T 1/2, and C max were calculated with the WinNonlin software.

[7] = system: recombinant HSV‐2 GFP strain; details: Human alphaherpesvirus 2, Vero, read-out: EC50 against recombinant HSV‐2 GFP strain
[8] = system: HSV‐2 strains G and Lovelace; test: Antiviral assay, HSV‐2 strains G and Lovelace in Vero cells (viral titer, TCID50); details: 10 µM, 24 h post‐infection
[9] = treatment after infection, days 0-3 p.i., LN‐7 75 mg kg−1, acyclovir 50 mg kg−1 or both

Sequence of HSV‐1 pUL15C (P04295 471-735): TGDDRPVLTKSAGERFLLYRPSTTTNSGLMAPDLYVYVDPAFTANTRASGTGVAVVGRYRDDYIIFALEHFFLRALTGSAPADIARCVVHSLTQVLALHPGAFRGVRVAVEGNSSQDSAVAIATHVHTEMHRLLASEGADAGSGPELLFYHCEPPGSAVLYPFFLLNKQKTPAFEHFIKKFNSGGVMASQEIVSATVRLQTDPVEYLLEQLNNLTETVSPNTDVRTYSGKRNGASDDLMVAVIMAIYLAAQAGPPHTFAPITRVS

## Nc1nc2c(ncn2COCCO)c(=O)[nH]1 [Acyclovir (ACV), Acyclovir, reference compound]
[1]
  toxic symptoms or mortality: did not show any toxic symptoms or mortality
[2]; prophylactic setting
  clinical symptoms of the infection / morbidity: Clinical symptoms of the infection were observed
[2]; [9]
  clinical symptoms: clinical symptoms were alleviated
  piloerection: piloerection was observed
  survival: survived until the end of the experiment
[3]; Vero cells
  CC50 at 24 h: > 100 µM
[4]
  EC50: > 20 µM

## O=C1c2c(O)c(=O)ccn2N([C@@H]2c3ccccc3SCc3c2ccc(F)c3F)[C@@H]2COCCN12 [Baloxavir acid, reference compound]
[3]
  CC50 at 24 h: > 100 µM

## COC(=O)OCOc1c2n(ccc1=O)N([C@@H]1c3ccccc3SCc3c1ccc(F)c3F)[C@@H]1COCCN1C2=O [Baloxavir marboxil, reference compound]
[3]
  CC50 at 24 h: > 100 µM

## O=C1c2c(O)c(=O)ccn2N(Cc2ccc(C(F)(F)F)cc2)[C@@H]2COCCN12 [Compound 7]
[3]; Vero cells
  CC50 at 24 h: > 100 µM

## O=C1c2c(O)c(=O)ccn2N(Cc2ccc(Cl)c(F)c2)[C@@H]2COCCN12 [Compound 10]
[3]; Vero cells
  CC50 at 24 h: > 100 µM

## O=C1c2c(O)c(=O)ccn2N(Cc2ccc3ccc4cccc5ccc2c3c45)[C@@H]2COCCN12 [Compound 12]
[5]
  inhibition at 50 µM: 65.4%
  IC50: > 30 µM

## O=C1c2c(O)c(=O)ccn2N(Cc2ccc(-c3ccco3)cc2)[C@@H]2COCCN12 [Compound 16, (R)-12-(4-(furan-2-yl)benzyl)-7-hydroxy-3,4,12,12a-tetrahydro-1H-[1,4] oxazi no[3,4-c] pyrido[2,1-f] [1,2,4] triazine-6,8-dione]
[3]; Vero cells
  CC50 at 24 h: > 100 µM

## O=C1c2c(O)c(=O)ccn2N(Cc2ccc(-c3ccccc3)cc2)[C@@H]2COCCN12 [Compound 17, (R)-12-([1,1'-biphenyl] -4-ylmethyl)-7-hydroxy-3,4,12,12a-tet rahydro-1H-[1,4] oxazino[3,4-c] pyrido[2,1-f] [1,2,4] triazine-6,8-dione]
[6]; IV 2 mg/Kg
  AUC(0-inf): 1230 ± 182 ng·h/mL
  Cmax: 782 ± 63.2 ng/mL
  Tmax: 0.0833 h
  clearance: 27.4 mL/min/kg
  half-life: 6.24 ± 1.24 h
[6]; IV 2 mg/Kg, read-out: Vz
  Vd: 15.1 ± 4.05 L/kg
[6]; PO 10 mg/Kg
  AUC(0-inf): 2980 ± 763 ng·h/mL
  Cmax: 573 ± 152 ng/mL
  Tmax: 2 h
  half-life: 5.54 ± 0.676 h
[1]
  toxic symptoms or mortality: did not show any toxic symptoms or mortality
[2]; prophylactic setting, oral LN‐7 75 mg kg−1, days −1 to 3 p.i., day 8 p.i.
  HSV‐1 titers in lung, brain, olfactory bulb and spleen tissues: decreased around one to two orders of magnitude
[2]; prophylactic setting
  clinical symptoms of the infection / morbidity: morbidity was higher for the LN‐7‐treated animals
[2]; [9]
  clinical symptoms: clinical symptoms were alleviated
  piloerection: piloerection was observed
  survival: survived until the end of the experiment
[2]; treatment after infection, days 0-3 p.i., LN‐7 75 mg kg−1, acyclovir 50 mg kg−1 or both, day 8 p.i.
  viral titers in tissues (lungs, brain, olfactory bulb, kidneys, spleen): significant reductions in the viral titers in all analyzed tissues of treated mice, except for kidney tissue
[3]; Vero cells
  CC50 at 24 h: 38.8 µM
[4]
  EC50: 3.2 ± 0.3 µM
[7]
  EC50: 3.6 ± 1.8 µM
[8]
  reduction in the viral titer: reduction of two orders of magnitude

## O=C1c2c(O)c(=O)ccn2N(Cc2ccc(-c3ccc4[nH]ccc4c3)cc2)[C@@H]2COCCN12 [Compound 19]
[5]
  inhibition at 50 µM: 51.5%
  IC50: > 30 µM

## O=C1c2c(O)c(=O)ccn2N(Cc2ccc(-c3ccc(F)cc3)cc2)[C@@H]2COCCN12 [Compound 30]
[3]; Vero cells
  CC50 at 24 h: > 66.5 µM

## O=C1c2c(O)c(=O)ccn2N(Cc2ccc(-c3ccc(Cl)cc3)cc2)[C@@H]2COCCN12 [Compound 31]
[5]
  inhibition at 50 µM: 48.1%
  IC50: > 30 µM

## O=C1c2c(O)c(=O)ccn2N(Cc2ccc(-c3ccc([N+](=O)[O-])cc3)cc2)[C@@H]2COCCN12 [Compound 32]
[5]
  inhibition at 50 µM: 74.3%
  IC50: > 30 µM

## COc1ccc(-c2ccc(CN3[C@@H]4COCCN4C(=O)c4c(O)c(=O)ccn43)cc2)cc1 [Compound 33]
[5]
  IC50: 19.4 ± 1.3 µM

## O=C1c2c(O)c(=O)ccn2N(Cc2ccc(-c3ccc(OC(F)(F)F)cc3)cc2)[C@@H]2COCCN12 [Compound 34]
[3]; Vero cells
  CC50 at 24 h: > 52.8 µM

## O=C(Nc1ccccc1)c1ccc(-c2ccc(CN3[C@@H]4COCCN4C(=O)c4c(O)c(=O)ccn43)cc2)cc1 [Compound 40]
[5]
  inhibition at 50 µM: 42.7%
  IC50: > 30 µM

## CC(C)c1ccc(O)c(=O)c(O)c1 [β‐thujaplicinol, reference compound]
[3]; Vero cells
  CC50 at 24 h: > 100 µM
